Columns and labels:
Format in all cases: cell-based, Cotton (Gossypium hirsutum L.)
[1] = system: embryogenic callus / somatic embryos; assay: Somatic embryo histodifferentiation on differentiation medium
Procedure: Following callus initiation, calluses were sub-cultured, every 4-5 weeks, to callus initiation medium or to basal medium without growth regulators, either solidified or liquid, agitated (under orbital shaking at 110 rpm) or to the surface of filter paper (Whatman™ n° 1) bridges, inserted into macrowell plates (34 mm in diameter, well), containing 3-4 ml of liquid medium to induce somatic embryogenesis. Liquid cultures were maintained by subculture at 2 week intervals. Primary calli containing embryogenic clumps were sub-cultured to somatic embryo differentiation media. A culture medium similar to embryogenesis callus induction medium was used, but modified to contain 10 mM glutamine (Price and Smith 1979 (Planta 145: 305-307.), Cousins et al. 1991 Aust. J. Plant Physiol. 18: 481-494.), 5.4 μM NAA, 2.5 μM iP and solidified with 0.2% gelrite. The effect of abscisic acid (ABA, 0.0, 0.19, 0.38, 1.9 μM) on somatic embryo histodifferentiation was tested.

[2] = system: epidermal strips of Coker line 312; assay: Callus initiation from epidermal strips of Coker line 312; details: cytokinin at 4.9 μM, medium further supplemented with NAA (10.7 μM); basal region of bract
Procedure: Following disinfection, bracts were soaked in sterile distilled water, for at least 3 h, to facilitate peeling. Epidermal strips were carefully excised from the lower epidermis, using fine forceps under sterile conditions. The enzymatic treatment of epidermal strips was tested for the removal of all contaminating mesophyll and vascular tissues as follows: strips were immersed for 2-3.5 h, in a filter sterilised solution containing Linsmaier & Skoog salts (1965), Cellulysin (0.2% w/v), Hemicellulase (0.2% w/v), polyvinylpyrrolidone (PVP-40, 0.1% w/v) and pH adjusted to 5.5.
Epidermal fragments (3-10 mm size), with or without enzymatic treatment, were placed in Petri dishes (32 mm in diameter) containing 2 ml semi-solid medium, with the cuticle side either in contact with the medium or upwards.
(§1) A basal medium containing Murashige and Skoog ((1962) Physiol Plant 15: 473-497.) salts, Trolinder & Goodin ((1988a) Plant Cell Tiss Org Cult 12: 31-42.) vitamins and glucose (166.5 mM equivalent to 30 g.l^−1) was used throughout the experiments. For callus initiation, basal medium was supplemented with naphthalene acetic acid (NAA, 2.7, 5.4, 10.7 and 21.5 μM) and isopentenyladenine (iP, 1.3, 2.5 and 4.9 μM). In addition, the effects of thidiazuron (tdz), kinetin (kin) and iP, each at a concentration of 4.9 μM, were tested for their effect on callus morphology and development. Callus initiation was evaluated after 3-6 weeks. Media was used as liquid or solidified (geirite 1.6 g.l^−1 plus 7.9 mM MgCl2). Twenty to thirty epidermal strips were cultured per dish.
The effect of shading of the culture dishes on callus initiation was also evaluated. One or two dishes containing a layer of culture medium (2 ml) were placed on the top of dishes containing the cultures. Dishes were incubated on full light (26.3 μmol. m^−2.s^−1) or under reduced light irradiance, respectively, under shade from 1 dish (21.0 μmol. m^−2.s^−1) or shading from two dishes (15.8 μmol. m^−2.s^−1).

[3] = system: both Coker lines (312 and 315); assay: Callus initiation, growth and morphology by growth regulators
Procedure: as §1
Epidermal strips were excised from the whole bract of Coker line 315 and cultured on medium containing NAA (2.7, 5.4, 10.7 and 21.5 μM) and iP (1.3, 2.5 and 4.9 μM). Two to four independent experiments were carried out and 1300 epidermal strips were used in these studies.
Callus initiation, growth and morphology from both Coker lines (312 and 315) were influenced by the growth regulators in the callus initiation medium. […] In addition, there were no statistical significant differences in callus induction frequency within the remaining range of treatments tested.

| SMILES | somatic embryo differentiation ([1]; ABA 0.0 or 1.9 μM) | somatic embryo differentiation ([1]; ABA 0.19-0.38 μM, after 3-4 weeks) | callus induction [2] [%] | time to similar size of callus ([3]; iP 1.2 μM) [weeks] | time to macroscopic calluses ([3]; iP 4.9 μM) |
| --- | --- | --- | --- | --- | --- |
| CC1=CC(=O)CC(C)(C)[C@@]1(O)/C=C/C(C)=C\C(=O)O [ABA, abscisic acid] | less uniform | Synchronised embryo differentiation and improved somatic embryo uniformity |  |  |  |
| c1coc(CNc2ncnc3[nH]cnc23)c1 [Kin, kinetin] |  |  | 8.6±0.7 |  |  |
| O=C(Nc1ccccc1)Nc1cnns1 [Tdz, thidiazuron] |  |  | 31.3±4.5 |  |  |
| CC(C)=CCNc1ncnc2nc[nH]c12 [iP, isopentenyladenine] |  |  | 36.3±15.8 | 8 | 4-5 weeks |

Source: patent US20030143744A1, “Method for the production of cotton somatic embryos” (priority 2000, published 2003)
